Results published in US20180099931A1 (AbbVie S.à.r.l., priority 2016, published 2018).
pEC50: −log10 of the molar value. Read-outs that look alike come from different tables or passages of the source.

Target: T1, F508delCFTR (Homo sapiens, UniProt P13569, DEL508-508)
T1 construct: expressed in transfected cells; host or cells: CFBE41o- human lung-derived epithelial cells (CFBE4lo-F508delCFTR-HRP), doxycycline-inducible
Test: Cell Surface Expression-Horse Radish Peroxidase (CSE-HRP) Assay;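 for Maximum % activity (with co-corrector): co-corrector and positive control are both the same reference corrector at 2 µM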;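 for Maximum % activity (without co-corrector): percent of the 2 µM on-plate positive control corrector response above DMSO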
Assay type: cell-based
Details: for Maximum % activity (with co-corrector): with co-corrector (2 μM); for Maximum % activity (with co-corrector) / Emax: maximum at any tested concentration, normalized to on-plate positive control; for Emax: without co-corrector, read-out: Maximum % activity (without co-corrector)

[1] = test compound without co-corrector, read-out: EC50 (without co-corrector)
[2] = with co-corrector (2 μM of 3-[(2R,4R)-4-({[1-(2,2-difluoro-1,3-benzodioxol-5-yl)cyclopropyl]carbonyl}amino)-7-methoxy-3,4-dihydro-2H-chromen-2-yl]benzoic acid), read-out: EC50 (with co-corrector)

T1 sequence (P13569 with tags, fused parts or gaps DEL508-508): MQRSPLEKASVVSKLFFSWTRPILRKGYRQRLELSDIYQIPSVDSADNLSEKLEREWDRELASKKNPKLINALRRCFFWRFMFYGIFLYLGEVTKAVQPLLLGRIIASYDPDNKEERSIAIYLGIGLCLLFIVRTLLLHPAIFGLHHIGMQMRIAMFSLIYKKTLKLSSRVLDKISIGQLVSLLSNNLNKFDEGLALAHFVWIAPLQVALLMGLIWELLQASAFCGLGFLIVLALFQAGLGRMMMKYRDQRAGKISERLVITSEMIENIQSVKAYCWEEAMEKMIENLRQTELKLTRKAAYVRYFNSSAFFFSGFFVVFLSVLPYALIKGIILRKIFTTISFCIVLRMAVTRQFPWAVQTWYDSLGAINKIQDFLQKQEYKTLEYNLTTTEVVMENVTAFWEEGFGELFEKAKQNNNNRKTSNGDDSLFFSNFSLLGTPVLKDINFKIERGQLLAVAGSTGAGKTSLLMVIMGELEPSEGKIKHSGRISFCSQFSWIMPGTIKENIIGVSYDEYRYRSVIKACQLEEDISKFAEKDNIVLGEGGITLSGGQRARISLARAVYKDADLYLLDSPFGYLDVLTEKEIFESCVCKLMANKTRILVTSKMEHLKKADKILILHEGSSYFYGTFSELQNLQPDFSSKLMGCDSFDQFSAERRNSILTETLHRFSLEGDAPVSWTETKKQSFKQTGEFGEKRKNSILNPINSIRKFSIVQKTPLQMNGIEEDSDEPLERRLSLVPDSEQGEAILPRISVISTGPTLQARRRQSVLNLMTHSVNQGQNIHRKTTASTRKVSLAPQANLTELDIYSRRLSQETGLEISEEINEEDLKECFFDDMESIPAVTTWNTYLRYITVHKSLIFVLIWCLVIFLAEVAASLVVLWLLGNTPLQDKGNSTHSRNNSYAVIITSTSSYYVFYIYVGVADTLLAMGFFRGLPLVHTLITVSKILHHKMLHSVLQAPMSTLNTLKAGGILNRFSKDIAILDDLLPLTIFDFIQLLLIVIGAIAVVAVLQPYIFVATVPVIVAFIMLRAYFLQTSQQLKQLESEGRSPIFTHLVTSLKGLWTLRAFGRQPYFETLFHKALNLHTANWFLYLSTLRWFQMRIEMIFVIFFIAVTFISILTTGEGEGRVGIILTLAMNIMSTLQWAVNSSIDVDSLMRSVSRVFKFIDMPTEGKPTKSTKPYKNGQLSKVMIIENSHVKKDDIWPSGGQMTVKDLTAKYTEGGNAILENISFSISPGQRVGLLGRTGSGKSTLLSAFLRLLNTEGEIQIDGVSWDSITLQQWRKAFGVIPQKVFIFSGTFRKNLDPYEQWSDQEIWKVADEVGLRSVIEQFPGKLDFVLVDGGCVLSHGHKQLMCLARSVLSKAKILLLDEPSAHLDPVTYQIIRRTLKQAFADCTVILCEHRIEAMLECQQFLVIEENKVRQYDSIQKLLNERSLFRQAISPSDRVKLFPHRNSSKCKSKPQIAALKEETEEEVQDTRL

SMILES	pEC50 [1]	pEC50 [2]	Maximum % activity (with co-corrector)	Emax
COc1ncc(C2CCCCC2)cc1CN[C@H]1[C@H](C(C)(C)C)[C@@H](C(=O)O)N(C(=O)C2CCCCC2)[C@H]1c1ccccc1 [Example I-72]	> 6.00	> 6.00	+++ (≥350)	> 200%
COc1ncc(C2CCCC2)cc1CN[C@H]1[C@H](C(C)(C)C)[C@@H](C(=O)O)N(C(=O)C2CCCCC2)[C@H]1c1ccccc1 [Example I-73]	> 6.00	> 6.00	+++ (≥350)	> 200%
CCC(CC)Cc1cnc(OC)c(CN[C@H]2[C@H](C(C)(C)C)[C@@H](C(=O)O)N(C(=O)C3CCCCC3)[C@H]2c2ccccc2)c1 [Example I-74]	> 6.00	> 6.00	+++ (≥350)	> 200%
COc1ncc(C(C)c2ccccc2)cc1CN[C@H]1[C@H](C(C)(C)C)[C@@H](C(=O)O)N(C(=O)C2CCCCC2)[C@H]1c1ccccc1 (some centres unmarked) [Example I-75]	> 6.00	> 6.00	+++ (≥350)	100 to 200%
COc1ncc(CC(C)C)cc1CN[C@H]1[C@H](C(C)(C)C)[C@@H](C(=O)O)N(C(=O)C2CCCCC2)[C@H]1c1ccccc1 [Example I-76]	5.00 to 6.00	> 6.00	+++ (≥350)	> 200%
COc1ncc(Cc2cccc(C#N)c2)cc1CN[C@H]1[C@H](C(C)(C)C)[C@@H](C(=O)O)N(C(=O)C2CCCCC2)[C@H]1c1ccccc1 [Example I-77]	5.00 to 6.00	5.00 to 6.00	+++ (≥350)	100 to 200%
COc1ccc(-c2ccccc2)cc1CN[C@H]1[C@H](C(C)(C)C)[C@@H](C(=O)O)N(C(=O)[C@@H]2CCC[C@@H](OC)C2)[C@H]1c1ccccc1 [Example I-78]	5.00 to 6.00	> 6.00	+++ (≥350)	> 200%
COc1ncc(C(F)(F)F)cc1CN[C@H]1[C@H](C(C)(C)C)[C@@H](C(=O)O)N(C(=O)[C@@H]2CCC[C@@H](OC)C2)[C@H]1c1ccccc1 [Example I-79]	5.00 to 6.00	5.00 to 6.00	+++ (≥350)	> 200%
CC(C)(C)c1ccc(O)c(CN[C@H]2[C@H](C(C)(C)C)[C@@H](C(=O)O)N(C(=O)C3CCCCC3)[C@H]2c2ccccc2)c1 [Example I-80]	< 5.00	< 5.00	+ (<150)	< 100%
COc1ccc(C(C)(C)C)cc1CN[C@H]1[C@H](C(C)(C)C)[C@@H](C(=O)O)N(C(=O)OC(C)C)[C@H]1c1ccccc1 [Example I-81]	5.00 to 6.00	5.00 to 6.00	+++ (≥350)	> 200%
COc1ccc(C(C)(C)C)cc1N[C@H]1[C@H](C(C)(C)C)[C@@H](C(=O)O)N(C(=O)C2CCCCC2)[C@H]1c1ccccc1 [Example I-82]	5.00 to 6.00	5.00 to 6.00	+++ (≥350)	< 100%
COc1ccc(C(F)(F)F)cc1CN[C@H]1[C@H](C(C)(C)C)[C@@H](C(=O)O)N(C(=O)CC2CCCCO2)[C@H]1c1ccccc1 (some centres unmarked) [Example I-84]	5.00 to 6.00	5.00 to 6.00	+++ (≥350)	100 to 200%
COc1ccc(CN(C)C)cc1CN[C@H]1[C@H](C(C)(C)C)[C@@H](C(=O)O)N(C(=O)C2CCCCC2)[C@H]1c1ccccc1 [Example I-85]	< 5.00	< 5.00	+ (<150)	< 100%
COc1ccc(S(F)(F)(F)(F)F)cc1CN[C@H]1[C@H](C(C)(C)C)[C@@H](C(=O)O)N(C(=O)C2CCCCC2)[C@H]1c1ccccc1 [Example I-86]	> 6.00	> 6.00	+++ (≥350)	100 to 200%
COc1ccc(-c2ccccc2)cc1CN[C@H]1[C@H](C(C)(C)OC)[C@@H](C(=O)O)N(C(=O)C2CCCCC2)[C@H]1c1ccccc1 [Example I-87]	> 6.00	> 6.00	+++ (≥350)	> 200%
COc1ccc(C(C)(C)C#N)cc1CN[C@H]1[C@H](C(C)(C)C)[C@@H](C(=O)O)N(C(=O)C2CCCCC2)[C@H]1c1ccccc1 [Example I-88]	5.00 to 6.00	5.00 to 6.00	+++ (≥350)	100 to 200%
COc1cc(C(C)(C)O)ccc1CN[C@H]1[C@H](C(C)(C)C)[C@@H](C(=O)O)N(C(=O)C2CCCCC2)[C@H]1c1ccccc1 [Example I-89]	< 5.00	< 5.00	+ (<150)	< 100%
COc1ccc(C(C)(C)C)cc1CN[C@H]1[C@H](C(C)(C)C)[C@@H](C(=O)O)N(C(=O)c2cc(C#N)ccc2OC)[C@H]1c1ccccc1 [Example I-90]	5.00 to 6.00	5.00 to 6.00	+++ (≥350)	100 to 200%

SMILES	pEC50 [1]	pEC50 [2]	Maximum % activity (with co-corrector)	Emax
COc1ccc(C(C)(C)C)cc1CN[C@H]1[C@H](C(C)(C)C)[C@@H](C(=O)O)N(C(=O)CN2Cc3ccccc3C2)[C@H]1c1ccccc1 [Example I-91]	5.00 to 6.00	5.00 to 6.00	+++ (≥350)	> 200%
COc1ccc(C(C)(C)C)cc1CN[C@H]1[C@H](C(C)(C)C)[C@@H](C(=O)O)N(C(=O)Cc2ccsc2)[C@H]1c1ccccc1 [Example I-92]	5.00 to 6.00	5.00 to 6.00	+++ (≥350)	> 200%
COc1ccc(C(C)(C)C)cc1CN[C@H]1[C@H](C(C)(C)C)[C@@H](C(=O)O)N(C(=O)c2ccc3cccc(F)c3n2)[C@H]1c1ccccc1 [Example I-93]	5.00 to 6.00	5.00 to 6.00	+++ (≥350)	100 to 200%
COc1ccc(CC(C)C)cc1CN[C@H]1[C@H](C(C)(C)C)[C@@H](C(=O)O)N(C(=O)C2CCCCC2)[C@H]1c1ccccc1 [Example I-94]	> 6.00	> 6.00	+++ (≥350)	> 200%
COc1ccc(C(C)(C)C)cc1CN[C@H]1[C@H](C(C)(C)C)[C@@H](C(=O)O)N(C(=O)Cc2c[nH]cn2)[C@H]1c1ccccc1 [Example I-98]	5.00 to 6.00	5.00 to 6.00	++ (≥150 and <350)	< 100%
COc1ccc(C(C)(C)C)cc1CN[C@H]1[C@H](C(C)(C)C)[C@@H](C(=O)O)N(C(=O)CC2(O)CCCC2)[C@H]1c1ccccc1 [Example I-99]	5.00 to 6.00	5.00 to 6.00	+++ (≥350)	> 200%
COc1ccc(C(C)(C)C)cc1CN[C@H]1[C@H](C(C)(C)C)[C@@H](C(=O)O)N(C(=O)CN2CCCCCC2)[C@H]1c1ccccc1 [Example I-100]	5.00 to 6.00	5.00 to 6.00	+++ (≥350)	> 200%
CCn1ccc(=O)c(C(=O)N2[C@H](C(=O)O)[C@@H](C(C)(C)C)[C@H](NCc3cc(C(C)(C)C)ccc3OC)[C@@H]2c2ccccc2)c1 [Example I-101]	< 5.00	< 5.00	+ (<150)	< 100%
COc1ccc(C(C)(C)C)cc1CN[C@H]1[C@H](C(C)(C)C)[C@@H](C(=O)O)N(C(=O)c2cc3occc3n2C)[C@H]1c1ccccc1 [Example I-102]	5.00 to 6.00	5.00 to 6.00	+++ (≥350)	100 to 200%
COc1ccc(C(C)(C)C)cc1CN[C@H]1[C@H](C(C)(C)C)[C@@H](C(=O)O)N(C(=O)C(C)n2cc(Cl)cn2)[C@H]1c1ccccc1 (some centres unmarked) [Example I-103]	5.00 to 6.00	5.00 to 6.00	+++ (≥350)	100 to 200%
COc1ccc(C(C)C)cc1CN[C@H]1[C@H](C(C)(C)C)[C@@H](C(=O)O)N(C(=O)C2CCCCC2)[C@H]1c1ccc(F)cc1 [Example I-109]	5.00 to 6.00	> 6.00	+++ (≥350)	> 200%
COc1ncc(C(F)(F)F)cc1CN[C@H]1[C@H](C(C)(C)C)[C@@H](C(=O)O)N(C(=O)C2CCCCC2)[C@H]1c1ccccc1F [Example I-110]	> 6.00	> 6.00	+++ (≥350)	< 100%
COc1ccc(C(C)C)cc1CN[C@H]1[C@H](C(C)(C)C)[C@@H](C(=O)O)N(C(=O)C2CCCCC2)[C@H]1c1ccccc1F [Example I-111]	5.00 to 6.00	> 6.00	+++ (≥350)	100 to 200%
COc1ccc(C(C)(C)C)cc1CN[C@H]1[C@H](C(C)(C)C)[C@@H](C(=O)O)N(C(=O)C2CCCCC2)[C@H]1c1ccc(F)cc1 [Example I-112]	> 6.00	> 6.00	+++ (≥350)	> 200%
COc1ccc(-c2cncnc2)cc1CN[C@H]1[C@H](C(C)(C)C)[C@@H](C(=O)O)N(C(=O)C2CCCCC2)[C@H]1c1ccccc1 [Example I-114]	5.00 to 6.00	5.00 to 6.00	++ (≥150 and <350)	< 100%
COc1ncc(C2CCC2)cc1CN[C@H]1[C@H](C(C)(C)OC)[C@@H](C(=O)O)N(C(=O)C2CCCCC2)[C@H]1c1ccccc1 [Example I-115]	5.00 to 6.00	> 6.00	+++ (≥350)	> 200%
COc1ncc(C2CCCC2)cc1CN[C@H]1[C@H](C(C)(C)OC)[C@@H](C(=O)O)N(C(=O)C2CCCCC2)[C@H]1c1ccccc1 [Example I-116]	> 6.00	> 6.00	+++ (≥350)	100 to 200%
